According to paper PMC7377239, “Cardiovascular Effects of Polychlorinated Biphenyls and Their Major Metabolites” (Environmental Health Perspectives, 2020):
Like-named read-outs stand apart in the source and are kept apart here.

Tests used:
HUVECs = test: High-content imaging cytotoxicity in HUVECs, 24 h; format: cell-based, human; details: Homo sapiens, HUVEC, 24 h, HUVECs; for viability at 0.01 µM / activity at 0.01 µM / viability at 0.1 µM / activity at 0.1 µM / viability at 1 µM / activity at 1 µM / viability at 10 µM / activity at 10 µM / viability at 100 µM / activity at 100 µM: 0.00 µM = 100.00; for viability at 0.1 µM / activity at 0.1 µM: 0.10 µM; for minimal effective concentration: top concentration 100.00 µM
Procedure, shortened: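 Read-out: multiwavelength high-content imaging of Hoechst 33342, MitoTracker Orange and calcein AM after 24 h compound exposure of confluent HUVEC monolayers. POD values were set using a one-SD cutoff from vehicle (0.5% DMSO) means; with no concentration–response, 100μM was assigned as no observable adverse effect level.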

[1] = tested on: iCell cardiomyocytes (human iPSC-derived cardiomyocytes); test: High-content imaging of cytotoxicity and mitochondrial integrity in iPSC-CMs; format: cell-based; details: Homo sapiens; for viability at 0.01 µM / activity at 0.01 µM / viability at 0.1 µM / activity at 0.1 µM / viability at 1 µM / activity at 1 µM / viability at 10 µM / activity at 10 µM / viability at 100 µM / activity at 100 µM: Cardiomyocyte, 0.00 µM = 100.00; for viability at 0.1 µM / activity at 0.1 µM: 0.10 µM; for minimal effective concentration: iPSC-CM
Procedure, shortened: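 Cardiomyocytes grown on gelatinized 384-well plates received fresh medium on the experiment day and were then exposed to chemicals at 0.01–100μM. Nuclei and mitochondria were labeled with Hoechst 33342 and MitoTracker™ Orange, then fixed, and imaged on an ImageXpress® Micro Confocal system. Four-parameter logistic concentration–response fits in R, with a one-standard-deviation vehicle cutoff, gave point-of-departure values.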

[2] = 24 hr, read-out: huvec.cyto.24hr
[3] = 24 hr, read-out: huvec.mito.24hr
[4] = 24 hr, read-out: huvec.mitoint.24hr
[5] = 24 hr, read-out: huvec.nma.24hr
[6] = 24 hrs, read-out: huvec.tc.24hrs

COc1ccc(-c2ccc(Cl)cc2)cc1 [4'-OMe PCB3] gave a viability at 0.01 µM (HUVECs; [2]) of 87.9%, an activity at 0.01 µM (HUVECs; [3]) of 86.7% and an activity at 0.01 µM (HUVECs; [4]) of 91.6%. It also gave an activity at 0.01 µM (HUVECs; [5]) of 101%, a viability at 0.1 µM (HUVECs; [2]) of 99.3% and an activity at 0.1 µM (HUVECs; [3]) of 98.5%. The activity at 0.1 µM (HUVECs; [4]) was 97.3%, the activity at 0.1 µM (HUVECs; [5]) was 98.2% and the viability at 1 µM (HUVECs; [2]) was 94.1%. The activity at 1 µM (HUVECs; [3]) was 93.8%, the activity at 1 µM (HUVECs; [4]) was 91% and the activity at 1 µM (HUVECs; [5]) was 96.4%. The viability at 10 µM (HUVECs; [2]) was 94.1%, the activity at 10 µM (HUVECs; [3]) was 92.9% and the activity at 10 µM (HUVECs; [4]) was 94%. For the same molecule, the activity at 10 µM (HUVECs; [5]) was 92.3%, the viability at 100 µM (HUVECs; [2]) was 70.2% and the activity at 100 µM (HUVECs; [3]) was 70.1%. It also gave an activity at 100 µM (HUVECs; [5]) of 73.7%, a minimal effective concentration (HUVECs; 24 hr, read-out: huvec.cyto.24hr POD) of 8.6 µM and a minimal effective concentration (HUVECs; 24 hr, read-out: huvec.mito.24hr POD) of 5.97 µM. The minimal effective concentration (HUVECs; 24 hr, read-out: huvec.mitoint.24hr POD) was 32 µM, the minimal effective concentration (HUVECs; 24 hr, read-out: huvec.nma.24hr POD) was 1.41 µM and the viability at 0.01 µM (HUVECs; [6]) was 87.9%. For the same molecule, the viability at 0.1 µM (HUVECs; [6]) was 99.3%, the viability at 1 µM (HUVECs; [6]) was 94.1% and the viability at 10 µM (HUVECs; [6]) was 94.1%. The viability at 100 µM (HUVECs; [6]) was 70.2%, the minimal effective concentration (HUVECs; 24 hrs, read-out: huvec.tc.24hrs POD) was 8.6 µM and the viability at 0.01 µM ([1]; 1.5 h, read-out: cm.cam.90min) was 95%. It also gave an activity at 0.01 µM ([1]; 1.5 h, read-out: cm.mii.90min) of 107%, an activity at 0.01 µM ([1]; 1.5 h, read-out: cm.mito.90min) of 94.4% and a viability at 0.01 µM ([1]; 1.5 h, read-out: cm.tc.90min) of 94.9%. For the same molecule, the viability at 0.1 µM ([1]; 1.5 h, read-out: cm.cam.90min) was 96%, the activity at 0.1 µM ([1]; 1.5 h, read-out: cm.mii.90min) was 114% and the activity at 0.1 µM ([1]; 1.5 h, read-out: cm.mito.90min) was 96%. It also gave a viability at 0.1 µM ([1]; 1.5 h, read-out: cm.tc.90min) of 96.1%, a viability at 1 µM ([1]; 1.5 h, read-out: cm.cam.90min) of 103% and an activity at 1 µM ([1]; 1.5 h, read-out: cm.mii.90min) of 103%. It also gave an activity at 1 µM ([1]; 1.5 h, read-out: cm.mito.90min) of 102%, a viability at 1 µM ([1]; 1.5 h, read-out: cm.tc.90min) of 103% and a viability at 10 µM ([1]; 1.5 h, read-out: cm.cam.90min) of 102%. The activity at 10 µM ([1]; 1.5 h, read-out: cm.mii.90min) was 109%, the activity at 10 µM ([1]; 1.5 h, read-out: cm.mito.90min) was 101% and the viability at 10 µM ([1]; 1.5 h, read-out: cm.tc.90min) was 101%. For the same molecule, the viability at 100 µM ([1]; 1.5 h, read-out: cm.cam.90min) was 104%, the activity at 100 µM ([1]; 1.5 h, read-out: cm.mii.90min) was 99.8% and the activity at 100 µM ([1]; 1.5 h, read-out: cm.mito.90min) was 104%. For the same molecule, the viability at 100 µM ([1]; 1.5 h, read-out: cm.tc.90min) was 105%, the viability at 0.01 µM ([1]; 24 h, read-out: cm.cam.24hrs) was 104% and the activity at 0.01 µM ([1]; 24 h, read-out: cm.mii.24hrs) was 87%. It also gave an activity at 0.01 µM ([1]; 24 h, read-out: cm.mito.24hrs) of 105%, a viability at 0.01 µM ([1]; 24 h, read-out: cm.tc.24hrs) of 105% and a viability at 0.1 µM ([1]; 24 h, read-out: cm.cam.24hrs) of 102%. It also gave an activity at 0.1 µM ([1]; 24 h, read-out: cm.mii.24hrs) of 85.8%, an activity at 0.1 µM ([1]; 24 h, read-out: cm.mito.24hrs) of 104% and a viability at 0.1 µM ([1]; 24 h, read-out: cm.tc.24hrs) of 102%. For the same molecule, the viability at 1 µM ([1]; 24 h, read-out: cm.cam.24hrs) was 104%, the activity at 1 µM ([1]; 24 h, read-out: cm.mii.24hrs) was 98% and the activity at 1 µM ([1]; 24 h, read-out: cm.mito.24hrs) was 104%. For the same molecule, the viability at 1 µM ([1]; 24 h, read-out: cm.tc.24hrs) was 104%, the viability at 10 µM ([1]; 24 h, read-out: cm.cam.24hrs) was 104% and the activity at 10 µM ([1]; 24 h, read-out: cm.mii.24hrs) was 83.8%. The activity at 10 µM ([1]; 24 h, read-out: cm.mito.24hrs) was 104%, the viability at 10 µM ([1]; 24 h, read-out: cm.tc.24hrs) was 104% and the viability at 100 µM ([1]; 24 h, read-out: cm.cam.24hrs) was 92.3%. The activity at 100 µM ([1]; 24 h, read-out: cm.mii.24hrs) was 122%, the activity at 100 µM ([1]; 24 h, read-out: cm.mito.24hrs) was 94.2% and the viability at 100 µM ([1]; 24 h, read-out: cm.tc.24hrs) was 92.4%. For the same molecule, the minimal effective concentration ([1]; 1.5 h, read-out: cm.cam.90min POD) was 100 µM, the minimal effective concentration ([1]; 1.5 h, read-out: cm.mii.90min POD) was 100 µM and the minimal effective concentration ([1]; 1.5 h, read-out: cm.mito.90min POD) was 100 µM. For the same molecule, the minimal effective concentration ([1]; 1.5 h, read-out: cm.tc.90min POD) was 100 µM, the minimal effective concentration ([1]; 24 h, read-out: cm.cam.24hrs POD) was 82.9 µM and the minimal effective concentration ([1]; 24 h, read-out: cm.mii.24hrs POD) was 100 µM. The minimal effective concentration ([1]; 24 h, read-out: cm.mito.24hrs POD) was 100 µM and the minimal effective concentration ([1]; 24 h, read-out: cm.tc.24hrs POD) was 100 µM.
